Assay results reported in ChEMBL document CHEMBL1134031, “Dimeric L-dopa derivatives as potential prodrugs” (Bioorg Med Chem Lett, 2001).
Values joined by “and” are separate entries in the source; they are usually repeats but may differ in a detail not shown here. Equal entries are not always repeated.

Key:
[1] = human, plasma
Description: (§1) Half life period in 80% human plasma at 37 degree Centigrade

[2] = human, plasma; remark: listed apart in the source
Description: (§2) Observed rate constant in 80% human plasma at 37 degree Centigrade

[3] = organism: Rattus norvegicus
Description: Observed rate constant in 80% rat plasma at 37 degree Centigrade

[4] = pH 1.3
Description: Observed rate constant at a pH of 1.3

[5] = pH 7.4
Description: Observed rate constant at a pH of 7.4

[6] = human, plasma; remark: listed apart in the source
Description: as §2

[7] = in vitro; settings: rat, 80% rat plasma
Description: Half life period in 80% rat plasma at 37 degree Centigrade

[8] = physchem; settings: dog, in vivo, pH 7.4
Description: Half life period at a pH 7.4 was determined

[9] = physchem; settings: pH 1.3
Description: Half life period at a pH 1.3 was determined

[10] = physchem; settings: octanol/phosphate buffer, pH 7.4
Description: Partition coefficient value in octanol and phosphate buffer (log P) at pH of 7.4 was determined.

[11] = in vitro; settings: human, 80% human plasma, T1/2
Description: as §1

SMILES	T1/2 [1]	k1 obs [2]	K obs [3]	K obs [4]	K obs [5]	k2 obs [6]	half-life [7]	half-life [8]	half-life [9]	logD [10]	half-life [11]
COC(=O)[C@H](Cc1ccc(OC(C)=O)c(OC(C)=O)c1)NC(=O)CCCC(=O)N[C@@H](Cc1ccc(OC(C)=O)c(OC(C)=O)c1)C(=O)OC	1.05 h and 2.57 h	0.011 min⁻¹	0.24 min⁻¹	0.01 h⁻¹	0.05 h⁻¹	0.0045 min⁻¹	0.0483 h	13.9 h	68.1 h	0.87	–
COC(=O)[C@H](Cc1ccc(OC(C)=O)c(OC(C)=O)c1)NC(=O)N[C@@H](Cc1ccc(OC(C)=O)c(OC(C)=O)c1)C(=O)OC	1.698 h and 4.62 h	0.0068 min⁻¹	0.028 min⁻¹	0.042 h⁻¹	0.049 h⁻¹	0.0025 min⁻¹	0.407 h	14.2 h	16.5 h	1.04	–
COC(=O)[C@H](Cc1ccc(OC(C)=O)c(OC(C)=O)c1)NC(=O)CCCCC(=O)N[C@@H](Cc1ccc(OC(C)=O)c(OC(C)=O)c1)C(=O)OC	–	0.081 min⁻¹	0.17 min⁻¹	0.014 h⁻¹	0.04 h⁻¹	0.01 min⁻¹	0.0683 h	17.3 h	48.8 h	0.92	–
COC(=O)[C@H](Cc1ccc(OC(C)=O)c(OC(C)=O)c1)NC(=O)C(=O)N[C@@H](Cc1ccc(OC(C)=O)c(OC(C)=O)c1)C(=O)OC	2.547 h	0.0083 min⁻¹	0.11 min⁻¹	0.032 h⁻¹	0.049 h⁻¹	0.0045 min⁻¹	0.102 h	14.2 h	20 h	0.73	1.38 h
COC(=O)[C@H](Cc1ccc(OC(C)=O)c(OC(C)=O)c1)NC(=O)CCC(=O)N[C@@H](Cc1ccc(OC(C)=O)c(OC(C)=O)c1)C(=O)OC	–	0.052 min⁻¹	0.34 min⁻¹	0.13 h⁻¹	0.043 h⁻¹	0.0086 min⁻¹	0.0333 h	16.2 h	55.4 h	0.85	–
